# Reference: US9474790B2, “Stable, protracted GLP-1/glucagon receptor co-agonists for medical use” (Novo Nordisk A/S, priority 2013, dated 2016)
# Numbered stars: 1 amine (or outer) side, 2 acyl side, 3 side chain; on linkers, the order of the positions; unused ones are H or OH. Square brackets hold non-standard residues; d marks the D form. Side chains are listed from the residue outwards. Peptide text beside a SMILES is read from it. * marks the point of attachment. C18 diacid = O=C(O)CCCCCCCCCCCCCCCCC(=O)*; γGlu = O=C(O)[C@H](CCC(=O)[*:2])N[*:1]; AEEA = NCCOCCOCC(=O)O; Aib = CC(C)(N)C(=O)O
# Biological target: T1, human GLP-1 receptor (Homo sapiens, UniProt P43220)
# T1 construct: expressed in transfected cells; host or cells: BHK cells (parent BHKTS13), clone FCW467-12A/KZ10-1, with CRE luciferase
# T1 sequence (P43220 24-463): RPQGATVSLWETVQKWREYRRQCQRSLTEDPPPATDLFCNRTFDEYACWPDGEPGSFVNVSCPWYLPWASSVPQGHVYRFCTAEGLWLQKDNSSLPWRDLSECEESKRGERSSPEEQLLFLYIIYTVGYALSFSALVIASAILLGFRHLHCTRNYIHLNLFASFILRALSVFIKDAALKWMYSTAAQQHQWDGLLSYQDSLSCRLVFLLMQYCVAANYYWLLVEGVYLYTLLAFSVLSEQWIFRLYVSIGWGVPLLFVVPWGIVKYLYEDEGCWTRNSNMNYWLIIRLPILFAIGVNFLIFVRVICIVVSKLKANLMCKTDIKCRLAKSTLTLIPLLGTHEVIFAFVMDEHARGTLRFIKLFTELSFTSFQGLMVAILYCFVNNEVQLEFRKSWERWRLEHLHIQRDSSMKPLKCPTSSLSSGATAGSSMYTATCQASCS
# Assay: GLP-1 receptor potency, CRE luciferase reporter gene assay in BHK cells
# Assay type: cell-based
# Details: BHK cells expressing human GLP-1 receptor, read-out: EC50 GLP-1R
# Description: The purpose of this example was to test the potency, of the glucagon derivatives of the invention, in vitro. The in vitro potency is the measure of human GLP-1 receptor or glucagon receptor activation, respectively, in a whole cell assay.
# In vitro potency was determined by measuring the response of human GLP-1 or glucagon receptor, respectively, in a reporter gene assay. The assay was performed in a stably transfected BHK cell line that expresses either the human GLP-1 receptor or the human glucagon receptor and contains the DNA for the cAMP response element (CRE) coupled to a promoter and the gene for firefly luciferase (CRE luciferase). […] When assay incubation was completed, the luciferase substrate (luciferin) was added and the enzyme converted luciferin to oxyluciferin and produces bioluminescence. The luminescence was measured as the readout for the assay.
# The cells used in this assay (clone FCW467-12A/KZ10-1) were BHK cells with BHKTS13 as a parent cell line. The cells were derived from a clone (FCW467-12A) that expresses the human GLP-1 receptor and were established by further transfection with
# CRE luciferase to obtain the current clone.
# The cells were cultured at 5% CO2 in DMEM medium with 10% FBS, 1×GlutaMAX, 1 mg/ml G418, 240 nM MTX (methotrexate) and 1% pen/strep (penicillin/streptomycin). They were aliquoted and stored in liquid nitrogen. Before each assay, an aliquot was taken up and washed three times in PBS before being suspended at the desired concentration in assay medium. For 96-well plates the suspension was made to give a final concentration of 5×10EE3 cells/well.
# The following chemicals were used in the assay: Pluronic F-68 (10%) (Gibco 2404), ovalbumin (Sigma A5503), DMEM w/o phenol red (Gibco 11880-028), 1 M Hepes (Gibco 15630), Glutamax 100× (Gibco 35050) and steadylite plus (PerkinElmer 6016757).
# Assay Medium consisted of DMEM w/o phenol red, 10 mM Hepes, lx GlutaMAX, 2% Ovalbumin and 0.2% Pluronic F-68.
# Cell stocks were thawed in a 37° C. water bath. Cells were washed three times in PBS. The cells were counted and adjusted to 5×10EE3 cells/50 μl (1×10EE5 cells/ml) in Assay Medium. A 50 μl aliquot of cells was transferred to each well in the assay plate.
# Stocks of the test compounds and reference compounds were diluted to a concentration of […] in Assay Medium. Compounds were diluted 10-fold to give the following concentrations: 2×10EE-6 M, 2×10EE-7 M, 2×10EE-8 M; 2×10EE-9 M, 2×10EE-10 M, 2×10EE-11 M, 2×10EE-12 M and 2×10EE-13 M. For each compound a blank assay medium control was also included.
# A 50 μl aliquot of compound or blank was transferred from the dilution plate to the assay plate. Compounds were tested at the following final concentrations: 1×10EE-6 M, 1×10EE-7 M, 1×10EE-8 M; 1×10EE-9 M, 1×10EE-10 M, 1×10EE-11 M and 1×10EE-12 M and 1×10EE-13 M.
# The assay plate was incubated for 3 h in a 5% CO2 incubator at 37° C. The assay plate was removed from the incubator and allowed to stand at room temperature for 15 min. A 100 μl aliquot of steadylite plus reagent was added to each well of the assay plate (reagent is light sensitive). Each assay plate was covered with aluminum foil to protect it from light and shaken for 30 min at room temperature. Each assay plate was read in a Perkin Elmer TopCount NXT instrument.
# The data from the TopCount instrument was transferred to GraphPad Prism software. The software performed a non-linear regression (log(agonist) vs response-Variable slope (four parameter)). EC50 values were calculated by the software and reported in pM.
row,EC50,Structure (SMILES)
1,0.02 nM,"CC(C)C[C@H](NC(=O)[C@H](Cc1ccc(O)cc1)NC(=O)[C@H](CCCCN)NC(=O)[C@H](CO)NC(=O)[C@H](CC(C)C)NC(=O)[C@H](CC(=O)O)NC(=O)[C@H](CO)NC(=O)[C@@H](NC(=O)[C@H](Cc1ccccc1)NC(=O)[C@@H](NC(=O)CNC(=O)[C@H](CCC(N)=O)NC(=O)C(C)(C)NC(=O)[C@@H](N)Cc1c[nH]cn1)[C@@H](C)O)[C@@H](C)O)C(=O)N[C@@H](CC(=O)O)C(=O)N[C@@H](CO)C(=O)N[C@@H](CCCNC(=N)N)C(=O)N[C@@H](CCCNC(=N)N)C(=O)N[C@@H](C)C(=O)N[C@@H](CCCNC(=N)N)C(=O)N[C@@H](CC(=O)O)C(=O)N[C@@H](Cc1ccccc1)C(=O)N[C@H](C(=O)N[C@@H](CCC(N)=O)C(=O)N[C@@H](Cc1c[nH]c2ccccc12)C(=O)N[C@@H](CC(C)C)C(=O)N[C@@H](CC(C)C)C(=O)N[C@@H](CO)C(=O)N[C@H](C(=O)N[C@@H](CCCCNC(=O)CC[C@H](NC(=O)CC[C@H](NC(=O)COCCOCCNC(=O)COCCOCCNC(=O)CC[C@H](NC(=O)CCCCCCCCCCCCCCCCC(=O)O)C(=O)O)C(=O)O)C(=O)O)C(N)=O)[C@@H](C)O)C(C)C [Example 6, N^α-([Aib2,Leu10,Arg20,Leu27,Ser28]-Glucagonyl)-N{Epsilon}[(4S)-4-carboxy-4-[[(4S)-4-carboxy-4-[[2-[2-[2-[[2-[2-[2-[[(4S)-4-carboxy-4-(17-carboxyheptadecanoylamino)butanoyl]amino]ethoxy]ethoxy]acetyl]amino]ethoxy]ethoxy]acetyl]amino]butanoyl]amino]butanoyl]Lys amide] (H-H[Aib]QGTFTSDLSKYLDSRRARDFVQWLLSTK([γGlu-γGlu-AEEA-AEEA-γGlu-C18 diacid])-NH2)"
2,0.044 nM,CC(C)C[C@H](NC(=O)[C@H](Cc1ccc(O)cc1)NC(=O)[C@H](CCCCN)NC(=O)[C@H](CO)NC(=O)[C@H](CC(C)C)NC(=O)[C@H](CC(=O)O)NC(=O)[C@H](CO)NC(=O)[C@@H](NC(=O)[C@H](Cc1ccccc1)NC(=O)[C@@H](NC(=O)CNC(=O)[C@H](CCC(N)=O)NC(=O)C(C)(C)NC(=O)[C@@H](N)Cc1c[nH]cn1)[C@@H](C)O)[C@@H](C)O)C(=O)N[C@@H](CC(=O)O)C(=O)N[C@@H](CO)C(=O)N[C@@H](CCCNC(=N)N)C(=O)N[C@@H](CCCNC(=N)N)C(=O)N[C@@H](C)C(=O)N[C@@H](CCCNC(=N)N)C(=O)N[C@@H](CCCCNC(=O)CC[C@H](NC(=O)CC[C@H](NC(=O)COCCOCCNC(=O)COCCOCCNC(=O)CC[C@H](NC(=O)CCCCCCCCCCCCCCCCC(=O)O)C(=O)O)C(=O)O)C(=O)O)C(=O)N[C@@H](Cc1ccccc1)C(=O)N[C@H](C(=O)N[C@@H](CCC(N)=O)C(=O)N[C@@H](Cc1c[nH]c2ccccc12)C(=O)N[C@@H](CC(C)C)C(=O)N[C@@H](CC(C)C)C(=O)N[C@@H](CO)C(=O)N[C@H](C(N)=O)[C@@H](C)O)C(C)C [Example 2] (H-H[Aib]QGTFTSDLSKYLDSRRARK([γGlu-γGlu-AEEA-AEEA-γGlu-C18 diacid])FVQWLLST-NH2; N-terminus assumed)
3,0.02 nM,"CC(C)C[C@H](NC(=O)[C@H](CC(C)C)NC(=O)[C@H](Cc1c[nH]c2ccccc12)NC(=O)[C@H](CCCNC(=N)N)NC(=O)[C@@H](NC(=O)[C@H](Cc1ccccc1)NC(=O)[C@H](CC(=O)O)NC(=O)[C@H](CCC(N)=O)NC(=O)[C@H](C)NC(=O)[C@H](CCCNC(=N)N)NC(=O)[C@H](CCCNC(=N)N)NC(=O)[C@@H](NC(=O)[C@H](CC(=O)O)NC(=O)[C@H](CC(C)C)NC(=O)[C@H](Cc1ccc(O)cc1)NC(=O)[C@H](CCCCN)NC(=O)[C@H](CO)NC(=O)[C@H](CC(C)C)NC(=O)[C@H](CC(=O)O)NC(=O)[C@H](CO)NC(=O)[C@@H](NC(=O)[C@H](Cc1ccccc1)NC(=O)[C@@H](NC(=O)CNC(=O)[C@H](CCC(N)=O)NC(=O)C(C)(C)NC(=O)[C@@H](N)Cc1c[nH]cn1)[C@@H](C)O)[C@@H](C)O)[C@@H](C)O)C(C)C)C(=O)N[C@@H](CO)C(=O)N[C@@H](CCCCNC(=O)CC[C@H](NC(=O)CC[C@H](NC(=O)COCCOCCNC(=O)COCCOCCNC(=O)CC[C@H](NC(=O)CCCCCCCCCCCCCCCCC(=O)O)C(=O)O)C(=O)O)C(=O)O)C(N)=O [Example 15, N^ε29-[(4S)-4-carboxy-4-[[(4S)-4-carboxy-4-[[2-[2-[2-[[2-[2-[2-[[(4S)-4-carboxy-4-(17-carboxyheptadecanoylamino)butanoyl]amino]ethoxy]ethoxy]acetyl]amino]ethoxy]ethoxy]acetyl]amino]butanoyl]amino]butanoyl]-[Aib2,Leu10,Thr16,Arg24,Leu27,Ser28,Lys29]-Glucagon amide] (H-H[Aib]QGTFTSDLSKYLDTRRAQDFVRWLLSK([γGlu-γGlu-AEEA-AEEA-γGlu-C18 diacid])-NH2; N-terminus assumed)"
4,0.006 nM,"CC(C)C[C@H](NC(=O)[C@H](Cc1ccc(O)cc1)NC(=O)[C@H](CCCCN)NC(=O)[C@H](CO)NC(=O)[C@H](CC(C)C)NC(=O)[C@H](CC(=O)O)NC(=O)[C@H](CO)NC(=O)[C@@H](NC(=O)[C@H](Cc1ccccc1)NC(=O)[C@@H](NC(=O)CNC(=O)[C@H](CCC(N)=O)NC(=O)C(C)(C)NC(=O)[C@@H](N)Cc1c[nH]cn1)[C@@H](C)O)[C@@H](C)O)C(=O)N[C@@H](CC(=O)O)C(=O)N[C@@H](CO)C(=O)N[C@@H](CCCNC(=N)N)C(=O)N[C@@H](CCCNC(=N)N)C(=O)N[C@@H](C)C(=O)N[C@@H](CCCNC(=N)N)C(=O)N[C@@H](CC(=O)O)C(=O)N[C@@H](Cc1ccccc1)C(=O)N[C@H](C(=O)N[C@@H](CCCCNC(=O)CC[C@H](NC(=O)CC[C@H](NC(=O)COCCOCCNC(=O)COCCOCCNC(=O)CC[C@H](NC(=O)CCCCCCCCCCCCCCCCC(=O)O)C(=O)O)C(=O)O)C(=O)O)C(=O)N[C@@H](Cc1c[nH]c2ccccc12)C(=O)N[C@@H](CC(C)C)C(=O)N[C@@H](CC(C)C)C(=O)N[C@@H](CO)C(=O)N[C@H](C(N)=O)[C@@H](C)O)C(C)C [Example 3, N^ε24-[(4S)-4-carboxy-4-[[(4S)-4-carboxy-4-[[2-[2-[2-[[2-[2-[2-[[(4S)-4-carboxy-4-(17-carboxyheptadecanoylamino)butanoyl]amino]ethoxy]ethoxy]acetyl]amino]ethoxy]ethoxy]acetyl]amino]butanoyl]amino]butanoyl]-[Aib2,Leu10,Arg20,Lys24,Leu27,Ser28]-Glucagon amide] (H-H[Aib]QGTFTSDLSKYLDSRRARDFVK([γGlu-γGlu-AEEA-AEEA-γGlu-C18 diacid])WLLST-NH2; N-terminus assumed)"
